# Experiments:
# [1] = target: Mitogen-activated protein kinase 8 (Homo sapiens, UniProt P45983); assay: Inhibition of human JNK1
# [2] = target: Casein kinase I isoform delta (Homo sapiens, UniProt P48730); assay: Inhibition of human CKIdelta
# [3] = target: Casein kinase I isoform alpha (Homo sapiens, UniProt P48729); assay: Inhibition of human CKIalpha
# [4] = target: Casein kinase II subunit alpha (Homo sapiens, UniProt P68400); assay: Inhibition of human CK2
# [5] = target: Mitogen-activated protein kinase 9 (Homo sapiens, UniProt P45984); assay: Inhibition of human JNK2
# MAP kinase p38 = MAP kinase p38 (Homo sapiens, UniProt O15264+Q15759+Q16539+P53778); assay: Inhibition of human p38 MAPK; format: protein assay
# [6] = Inhibition of human PKA
# [7] = target: Ribosomal protein S6 kinase alpha-3 (Homo sapiens, UniProt P51812); assay: Inhibition of human RSK2
# Sequence of Ribosomal protein S6 kinase alpha-3 (P51812 whole entry): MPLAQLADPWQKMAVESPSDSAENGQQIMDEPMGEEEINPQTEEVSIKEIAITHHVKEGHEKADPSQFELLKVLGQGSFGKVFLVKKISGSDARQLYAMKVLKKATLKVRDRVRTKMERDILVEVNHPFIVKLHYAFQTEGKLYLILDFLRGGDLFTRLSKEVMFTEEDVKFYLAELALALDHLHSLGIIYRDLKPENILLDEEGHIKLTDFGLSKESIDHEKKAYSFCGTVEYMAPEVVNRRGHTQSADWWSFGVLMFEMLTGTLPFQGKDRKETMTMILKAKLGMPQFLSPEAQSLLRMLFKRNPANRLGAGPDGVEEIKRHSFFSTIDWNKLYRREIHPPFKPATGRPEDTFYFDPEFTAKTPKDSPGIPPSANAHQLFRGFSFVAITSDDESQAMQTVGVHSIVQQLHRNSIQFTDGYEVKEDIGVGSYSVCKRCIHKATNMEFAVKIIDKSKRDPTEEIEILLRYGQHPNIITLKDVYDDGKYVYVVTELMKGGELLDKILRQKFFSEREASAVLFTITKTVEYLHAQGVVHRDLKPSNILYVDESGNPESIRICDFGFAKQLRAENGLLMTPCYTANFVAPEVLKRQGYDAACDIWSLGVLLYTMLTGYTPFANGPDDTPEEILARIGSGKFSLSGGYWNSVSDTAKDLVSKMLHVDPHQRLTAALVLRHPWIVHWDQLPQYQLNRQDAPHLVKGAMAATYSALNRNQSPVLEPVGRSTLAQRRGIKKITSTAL
# Sequence of Casein kinase I isoform alpha (P48729 whole entry, canonical isoform): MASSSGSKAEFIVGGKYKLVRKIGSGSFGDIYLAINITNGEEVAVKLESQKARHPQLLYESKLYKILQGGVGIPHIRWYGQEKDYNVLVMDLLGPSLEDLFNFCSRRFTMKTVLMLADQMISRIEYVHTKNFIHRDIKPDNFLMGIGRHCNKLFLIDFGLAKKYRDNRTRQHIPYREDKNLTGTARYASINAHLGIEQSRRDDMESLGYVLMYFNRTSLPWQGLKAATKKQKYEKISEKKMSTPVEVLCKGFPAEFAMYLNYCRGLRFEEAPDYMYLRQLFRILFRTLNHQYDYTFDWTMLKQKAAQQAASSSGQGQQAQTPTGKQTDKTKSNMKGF
# Sequence of Casein kinase I isoform delta (P48730 whole entry, canonical isoform): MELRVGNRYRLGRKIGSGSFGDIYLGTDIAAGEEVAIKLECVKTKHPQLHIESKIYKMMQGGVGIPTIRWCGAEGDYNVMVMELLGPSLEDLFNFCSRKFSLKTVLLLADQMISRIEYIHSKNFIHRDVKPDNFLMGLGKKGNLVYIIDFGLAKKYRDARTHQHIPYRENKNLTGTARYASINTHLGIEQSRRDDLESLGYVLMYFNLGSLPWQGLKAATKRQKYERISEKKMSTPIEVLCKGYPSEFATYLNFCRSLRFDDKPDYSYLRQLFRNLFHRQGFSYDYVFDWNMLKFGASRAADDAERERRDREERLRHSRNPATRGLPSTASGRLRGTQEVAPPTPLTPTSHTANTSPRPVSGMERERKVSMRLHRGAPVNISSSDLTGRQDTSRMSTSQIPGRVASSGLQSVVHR
# Sequence of Mitogen-activated protein kinase 9 (P45984 whole entry): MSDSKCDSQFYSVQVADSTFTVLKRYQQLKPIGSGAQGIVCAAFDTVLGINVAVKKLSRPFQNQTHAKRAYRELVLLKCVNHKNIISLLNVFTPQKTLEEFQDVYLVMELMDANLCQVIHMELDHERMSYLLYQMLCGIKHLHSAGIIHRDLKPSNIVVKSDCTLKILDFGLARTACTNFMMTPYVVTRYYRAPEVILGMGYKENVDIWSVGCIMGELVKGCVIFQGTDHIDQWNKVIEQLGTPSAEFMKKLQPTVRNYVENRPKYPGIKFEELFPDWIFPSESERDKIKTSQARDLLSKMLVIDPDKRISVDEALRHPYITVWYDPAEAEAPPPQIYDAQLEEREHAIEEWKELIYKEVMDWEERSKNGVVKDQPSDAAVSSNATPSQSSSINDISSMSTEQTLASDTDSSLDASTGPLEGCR
# Sequence of Casein kinase II subunit alpha (P68400 whole entry): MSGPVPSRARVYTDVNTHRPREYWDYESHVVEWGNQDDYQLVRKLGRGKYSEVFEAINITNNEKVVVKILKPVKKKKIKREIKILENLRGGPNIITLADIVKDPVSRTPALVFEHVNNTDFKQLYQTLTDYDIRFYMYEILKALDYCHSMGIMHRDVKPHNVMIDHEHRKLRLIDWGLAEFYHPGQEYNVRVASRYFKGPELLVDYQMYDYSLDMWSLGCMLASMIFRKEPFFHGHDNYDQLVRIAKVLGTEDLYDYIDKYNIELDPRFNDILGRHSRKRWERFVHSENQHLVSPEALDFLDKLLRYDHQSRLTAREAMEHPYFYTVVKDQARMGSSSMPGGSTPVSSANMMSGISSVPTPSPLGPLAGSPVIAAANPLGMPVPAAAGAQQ
# Sequence of Mitogen-activated protein kinase 8 (P45983 whole entry, canonical isoform): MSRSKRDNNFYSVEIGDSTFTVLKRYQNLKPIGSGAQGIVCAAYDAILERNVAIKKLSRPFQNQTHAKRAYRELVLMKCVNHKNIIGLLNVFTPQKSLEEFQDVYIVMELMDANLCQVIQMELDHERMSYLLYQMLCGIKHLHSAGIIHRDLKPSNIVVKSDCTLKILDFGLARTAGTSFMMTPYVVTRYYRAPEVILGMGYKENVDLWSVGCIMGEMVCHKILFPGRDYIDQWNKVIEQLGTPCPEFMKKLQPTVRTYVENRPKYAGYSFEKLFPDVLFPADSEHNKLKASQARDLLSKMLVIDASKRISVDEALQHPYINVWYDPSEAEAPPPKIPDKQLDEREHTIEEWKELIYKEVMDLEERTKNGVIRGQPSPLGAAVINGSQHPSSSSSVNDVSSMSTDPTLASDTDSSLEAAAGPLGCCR
IC50 [1] [µM],IC50 [2] [µM],IC50 [3] [µM],IC50 [4] [µM],IC50 [5] [µM],IC50 (MAP kinase p38),IC50 [6] [µM],IC50 [7] [µM],Structure (SMILES)
385,1.4,1.1,> 100,404,<= 0.028 uM,260,76,CNc1nccc(-c2nc(C3CCNCC3)[nH]c2-c2cccc(C(F)(F)F)c2)n1
175,0.4,1.3,> 100,166,<= 0.024 uM,2,39,CC1CCC(c2nc(-c3ccc(F)cc3)c(-c3ccncc3)[nH]2)CC1 (stereo unspecified)
